Results as given in PubChem BioAssay AID2060626 (Molecular Pharmacology Branch, DTP, NCI, 2025).
“And” between values parts separate entries of the source, which are not always exact repeats. Identical values can stand only once.

System: 168753-222-R-J1-PDC complex spheroid viability
Experiment: Anticancer human tumor 168753-222-R-J1-PDC patient-derived bladder carcinoma cell line growth inhibition [CLK]
Conditions: for viability, T/C: stronger effect = lower value; active = viability on the fitted dose curve at most 10% of control; inactive = the rest
Outline: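 Patient-derived tumor cells grown as complex spheroids with HUVEC endothelial cells and mesenchymal stem cells, treated with drug combinations. Concentrations descend in half-log steps from near clinical Cmax, or from 10 microM if Cmax unknown.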

[1] = curve of first compound, second compound 0.0316 µM
[2] = curve of first compound, second compound 0.1 µM
[3] = curve of first compound, second compound 0.316 µM
[4] = curve of first compound, second compound 1 µM
[5] = curve of first compound, second compound 3.16 µM
[6] = curve of first compound, second compound 10 µM
[7] = second compound 0.0316 µM, first compound 0.0316 µM
[8] = second compound 0.0316 µM, first compound 0.1 µM
[9] = second compound 0.0316 µM, first compound 0.316 µM
[10] = second compound 0.0316 µM, first compound 1 µM
[11] = second compound 0.0316 µM, first compound 3.16 µM
[12] = second compound 0.0316 µM, first compound 10 µM
[13] = second compound 0.1 µM, first compound 0.0316 µM
[14] = second compound 0.1 µM, first compound 0.1 µM
[15] = second compound 0.1 µM, first compound 0.316 µM
[16] = second compound 0.1 µM, first compound 1 µM
[17] = second compound 0.1 µM, first compound 3.16 µM
[18] = second compound 0.1 µM, first compound 10 µM
[19] = second compound 0.316 µM, first compound 0.0316 µM
[20] = second compound 0.316 µM, first compound 0.1 µM
[21] = second compound 0.316 µM, first compound 0.316 µM
[22] = second compound 0.316 µM, first compound 1 µM
[23] = second compound 0.316 µM, first compound 3.16 µM
[24] = second compound 0.316 µM, first compound 10 µM
[25] = second compound 1 µM, first compound 0.0316 µM
[26] = second compound 1 µM, first compound 0.1 µM
[27] = second compound 1 µM, first compound 0.316 µM
[28] = second compound 1 µM, first compound 1 µM
[29] = second compound 1 µM, first compound 3.16 µM
[30] = second compound 1 µM, first compound 10 µM
[31] = second compound 3.16 µM, first compound 0.0316 µM
[32] = second compound 3.16 µM, first compound 0.1 µM
[33] = second compound 3.16 µM, first compound 0.316 µM
[34] = second compound 3.16 µM, first compound 1 µM
[35] = second compound 3.16 µM, first compound 3.16 µM
[36] = second compound 3.16 µM, first compound 10 µM
[37] = second compound 10 µM, first compound 0.0316 µM
[38] = second compound 10 µM, first compound 0.1 µM
[39] = second compound 10 µM, first compound 0.316 µM
[40] = second compound 10 µM, first compound 1 µM
[41] = second compound 10 µM, first compound 3.16 µM
[42] = second compound 10 µM, first compound 10 µM
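Note: viability measured after seven days of drug exposure.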
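Throughout, for viability, T/C: luminescence signal used as surrogate for viable cell amount; 100% = DMSO vehicle control wells.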

COc1cccc2c1C(=O)c1c(O)c3c(c(O)c1C2=O)CC(O)(C(=O)CO)CC3OC1CC(N)C(O)C(C)O1 (configuration not stated) + CN1CCN(c2cc(C(=O)Nc3cc4cc(-c5cnn(C)c5)ccc4cn3)ccn2)CC1
inactive: viability, T/C [7] 51.4% | viability, T/C [8] 31.8% | viability, T/C [9] 23.1% | viability, T/C [10] 6.97% | viability, T/C [13] 38.4% | viability, T/C [14] 15.5% | viability, T/C [19] 8.86%
active: viability, T/C [11] 7.48% | viability, T/C [12] 0.18% | viability, T/C [15] 10.5% | viability, T/C [16] 7.96% | viability, T/C [17] 5.89% | viability, T/C [18] 0.16% | viability, T/C [20] 8.74% | viability, T/C [21] 7.81% | viability, T/C [22] 6.39% | viability, T/C [23] 0.05% | viability, T/C [24] 0.05% | viability, T/C [25] 0.13% | viability, T/C [26] 0.11% | viability, T/C [27] 0.17% | viability, T/C [28] 0.05% | viability, T/C [29] 0.48% | viability, T/C [30] 1.29% | viability, T/C [31] 1.25% | viability, T/C [32] 0.09% | viability, T/C [33] 0.07% | viability, T/C [34] 0.05% | viability, T/C [35] 0.27% | viability, T/C [36] 0.95% | viability, T/C [37] 0.04% | viability, T/C [38] 0.26% | viability, T/C [39] 0.34% | viability, T/C [40] 0.08% | viability, T/C [41] 0.95% | viability, T/C [42] 0.95%
< 31.6 nM: IC50 [2] | IC50 [3] | IC50 [4] | IC50 [5] | IC50 [6]
33.1 nM: IC50 [1]

CCCS(=O)(=O)Nc1ccc(F)c(C(=O)c2c[nH]c3ncc(-c4ccc(Cl)cc4)cc23)c1F
> 10000 nM: IC50 (curve of compound)
inactive: viability, T/C (compound 0.0316 µM) 91.7% and 104% | viability, T/C (compound 0.1 µM) 108% and 107% | viability, T/C (compound 0.316 µM) 103% and 113% | viability, T/C (compound 1 µM) 132% and 115% | viability, T/C (compound 3.16 µM) 120% and 118% | viability, T/C (compound 10 µM) 71.7% and 76.3%

C#Cc1c(F)ccc2cc(O)cc(-c3ncc4c(N5CC6CCC(C5)N6)nc(OCC56CCCN5CC(F)C6)nc4c3F)c12 (configuration not stated) + CNC(=O)c1ccc(Nc2nc(OC3CCCC3)c3c(-c4ccc5nc(C)oc5c4)c[nH]c3n2)c(OC)c1
< 31.6 nM: IC50 [4] | IC50 [5] | IC50 [6]
> 10000 nM: IC50 [1] | IC50 [2]
5140 nM: IC50 [3]
inactive: viability, T/C [7] 106% | viability, T/C [8] 99.4% | viability, T/C [9] 107% | viability, T/C [10] 99.2% | viability, T/C [11] 105% | viability, T/C [12] 73.1% | viability, T/C [13] 99.1% | viability, T/C [14] 103% | viability, T/C [15] 101% | viability, T/C [16] 101% | viability, T/C [17] 90.1% | viability, T/C [18] 73% | viability, T/C [19] 86% | viability, T/C [20] 74.3% | viability, T/C [21] 78.5% | viability, T/C [22] 78.2% | viability, T/C [23] 67.9% | viability, T/C [24] 25.6% | viability, T/C [25] 42.3% | viability, T/C [26] 39.9% | viability, T/C [27] 36.7% | viability, T/C [28] 22.7% | viability, T/C [29] 30.4% | viability, T/C [30] 16.9% | viability, T/C [31] 28.7% | viability, T/C [32] 21.7% | viability, T/C [33] 20% | viability, T/C [34] 17.7% | viability, T/C [35] 18.4% | viability, T/C [36] 16.2% | viability, T/C [37] 17.1% | viability, T/C [38] 21.5% | viability, T/C [39] 18.6% | viability, T/C [40] 14.8% | viability, T/C [41] 11.7% | viability, T/C [42] 11.3%

CC1COCCN1c1cc(C2(S(C)(=N)=O)CC2)nc(-c2ccnc3[nH]ccc23)n1 (configuration not stated)
inactive: viability, T/C (compound 0.0316 µM) 93.5% and 106% | viability, T/C (compound 0.1 µM) 67% and 101% | viability, T/C (compound 0.316 µM) 84.1% and 104% | viability, T/C (compound 1 µM) 75.9% and 102% | viability, T/C (compound 3.16 µM) 49.7% and 87.8% | viability, T/C (compound 10 µM) 26.7% and 56.4%
3110 nM and > 10000 nM: IC50 (curve of compound)

CC1(C)CCC(CN2CCN(c3ccc(C(=O)NS(=O)(=O)c4ccc(NCC5CCOCC5)c([N+](=O)[O-])c4)c(Oc4cnc5[nH]ccc5c4)c3)CC2)=C(c2ccc(Cl)cc2)C1 + CN1CCN(c2cc(C(=O)Nc3cc4cc(-c5cnn(C)c5)ccc4cn3)ccn2)CC1
675 nM: IC50 [1]
active: viability, T/C [20] 10.3% | viability, T/C [21] 8.72% | viability, T/C [22] 8.03% | viability, T/C [23] 8.36% | viability, T/C [24] 7.08% | viability, T/C [25] 0.25% | viability, T/C [26] 0.31% | viability, T/C [27] 0.77% | viability, T/C [28] 0.22% | viability, T/C [29] 0.16% | viability, T/C [30] 1.27% | viability, T/C [31] 0.41% | viability, T/C [32] 0.29% | viability, T/C [33] 0.71% | viability, T/C [34] 0.15% | viability, T/C [35] 1.14% | viability, T/C [36] 0.49% | viability, T/C [37] 0.2% | viability, T/C [38] 0.75% | viability, T/C [39] 0.51% | viability, T/C [40] 0.26% | viability, T/C [41] 0.35% | viability, T/C [42] 1.21%
< 31.6 nM: IC50 [3] | IC50 [4] | IC50 [5] | IC50 [6]
inactive: viability, T/C [7] 74.8% | viability, T/C [8] 84.6% | viability, T/C [9] 55.5% | viability, T/C [10] 41.3% | viability, T/C [11] 31.6% | viability, T/C [12] 10.2% | viability, T/C [13] 69.7% | viability, T/C [14] 60.5% | viability, T/C [15] 28.1% | viability, T/C [16] 35.8% | viability, T/C [17] 33.7% | viability, T/C [18] 10.3% | viability, T/C [19] 10.3%
154 nM: IC50 [2]

Cn1ncnc1[C@H]1c2n[nH]c(=O)c3cc(F)cc(c23)N[C@@H]1c1ccc(F)cc1 + CN1CCN(c2cc(C(=O)Nc3cc4cc(-c5cnn(C)c5)ccc4cn3)ccn2)CC1
4.08 nM: IC50 [2]
> 100 nM: IC50 [1]
inactive: viability, T/C (second compound 0.0316 µM, first compound 0.000316 µM) 90.2% | viability, T/C (second compound 0.0316 µM, first compound 0.001 µM) 95.1% | viability, T/C (second compound 0.0316 µM, first compound 0.00316 µM) 70.5% | viability, T/C (second compound 0.0316 µM, first compound 0.01 µM) 101% | viability, T/C [7] 97.9% | viability, T/C [8] 58.2% | viability, T/C (second compound 0.1 µM, first compound 0.000316 µM) 58.7% | viability, T/C (second compound 0.1 µM, first compound 0.001 µM) 72.5% | viability, T/C (second compound 0.1 µM, first compound 0.00316 µM) 54.7% | viability, T/C (second compound 0.1 µM, first compound 0.01 µM) 18.7% | viability, T/C [13] 25.8% | viability, T/C [14] 56%
< 0.316 nM: IC50 [3] | IC50 [4] | IC50 [5] | IC50 [6]
active: viability, T/C (second compound 0.316 µM, first compound 0.000316 µM) 9.67% | viability, T/C (second compound 0.316 µM, first compound 0.001 µM) 9.41% | viability, T/C (second compound 0.316 µM, first compound 0.00316 µM) 8.77% | viability, T/C (second compound 0.316 µM, first compound 0.01 µM) 7.96% | viability, T/C [19] 8.57% | viability, T/C [20] 8.4% | viability, T/C (second compound 1 µM, first compound 0.000316 µM) 0.18% | viability, T/C (second compound 1 µM, first compound 0.001 µM) 0.28% | viability, T/C (second compound 1 µM, first compound 0.00316 µM) 0.18% | viability, T/C (second compound 1 µM, first compound 0.01 µM) 0.53% | viability, T/C [25] 0.24% | viability, T/C [26] 0.51% | viability, T/C (second compound 3.16 µM, first compound 0.000316 µM) 1.24% | viability, T/C (second compound 3.16 µM, first compound 0.001 µM) 0.1% | viability, T/C (second compound 3.16 µM, first compound 0.00316 µM) 0.18% | viability, T/C (second compound 3.16 µM, first compound 0.01 µM) 0.06% | viability, T/C [31] 0.26% | viability, T/C [32] 0.88% | viability, T/C (second compound 10 µM, first compound 0.000316 µM) 0.11% | viability, T/C (second compound 10 µM, first compound 0.001 µM) 0.27% | viability, T/C (second compound 10 µM, first compound 0.00316 µM) 0.25% | viability, T/C (second compound 10 µM, first compound 0.01 µM) 0.1% | viability, T/C [37] 0.21% | viability, T/C [38] 0.19%
